Common to all, as to format: functional
Experiment [1] relates to Escherichia coli. The experiment in a line: Antimicrobial activity against Escherichia coli TOP10 by Etest.
Experiment [2] deals with Escherichia coli. Put plainly: Antimicrobial activity against Escherichia coli TOP10 harboring pSmQnr1 carrying Smqnr gene by Etest.
In experiment [3] the test system is Escherichia coli. Put plainly: Antimicrobial activity against Escherichia coli TOP10 harboring pSmQnr3 carrying Smqnr gene by Etest.
The subject of experiment [4] is Escherichia coli. Put plainly: Antimicrobial activity against Escherichia coli TOP10 harboring pSmQnr4 carrying Smqnr gene by Etest.
In experiment [5] the test system is Escherichia coli. The experiment in a line: Antimicrobial activity against Escherichia coli TOP10 harboring pSmQnr5 carrying Smqnr gene by Etest.
The test system of experiment [6] is Escherichia coli. Put plainly: Antimicrobial activity against Escherichia coli TOP10 harboring pSmQnr6 carrying Smqnr gene by Etest.
In experiment [7] the test system is Escherichia coli. Put plainly: Antimicrobial activity against Escherichia coli TOP10 harboring pSmQnr7 carrying Smqnr gene by Etest.
Experiment [8] relates to Escherichia coli. Put plainly: Antimicrobial activity against Escherichia coli TOP10 harboring pSmQnr8 carrying Smqnr gene by Etest.
For experiment [9], the system named is Escherichia coli. Put plainly: Antimicrobial activity against Escherichia coli TOP10 harboring pSmQnr10 carrying Smqnr gene by Etest.
Experiment [10] has as its system Escherichia coli. Put plainly: Antimicrobial activity against Escherichia coli TOP10 harboring pSmQnr11 carrying Smqnr gene by Etest.
Experiment [11] has as its system Escherichia coli. Put plainly: Antimicrobial activity against Escherichia coli TOP10 harboring pSmQnr9 carrying Smqnr gene by Etest.
In experiment [12] the test system is Escherichia coli. The experiment in a line: Antimicrobial activity against Escherichia coli TOP10 harboring pSmQnr2 carrying Smqnr gene by Etest.

Converted amounts (≈) assume the structure as drawn.

For the molecule `COc1c(N2C[C@@H]3CCCN[C@@H]3C2)c(F)cc2c(=O)c(C(=O)O)cn(C3CC3)c12` [MOXIFLOXACIN], the minimal inhibitory concentration (MIC) in the experiment with Escherichia coli [1] is less than 0.002 mg/L; against Escherichia coli [2] it was 0.012 mg/L (≈ 0.0299 µM); in the experiment on Escherichia coli [3] it was 0.002 mg/L (≈ 0.00498 µM); against Escherichia coli [4] it was 0.002 mg/L (≈ 0.00498 µM); against Escherichia coli [5], 0.003 mg/L (≈ 0.00747 µM); against Escherichia coli [6] it was 0.047 mg/L (≈ 0.117 µM). The MIC in the experiment on Escherichia coli [7] amounted to 0.008 mg/L (≈ 0.0199 µM); against Escherichia coli [8] it was 0.002 mg/L (≈ 0.00498 µM); in the experiment with Escherichia coli [9], 0.004 mg/L (≈ 0.00996 µM); with Escherichia coli [10] it was 0.002 mg/L (≈ 0.00498 µM).

As for `COc1c(N2CCNC(C)C2)c(F)cc2c(=O)c(C(=O)O)cn(C3CC3)c12` (stereo unspecified) [GATIFLOXACIN], the MIC in the experiment on Escherichia coli [1] is less than 0.002 mg/L; in the experiment with Escherichia coli [2] it was 0.008 mg/L (≈ 0.0213 µM); with Escherichia coli [3], 0.003 mg/L (≈ 0.00799 µM); against Escherichia coli [4], 0.002 mg/L (≈ 0.00533 µM); in the experiment on Escherichia coli [6], 0.064 mg/L (≈ 0.17 µM); with Escherichia coli [7] it was 0.023 mg/L (≈ 0.0613 µM). In addition, the MIC against Escherichia coli [8] was determined as 0.002 mg/L (≈ 0.00533 µM); with Escherichia coli [11] it was 0.002 mg/L (≈ 0.00533 µM); against Escherichia coli [9] it was 0.003 mg/L (≈ 0.00799 µM); in the experiment with Escherichia coli [10], 0.003 mg/L (≈ 0.00799 µM).

In the case of `C[C@H]1COc2c(N3CCN(C)CC3)c(F)cc3c(=O)c(C(=O)O)cn1c23.C[C@H]1COc2c(N3CCN(C)CC3)c(F)cc3c(=O)c(C(=O)O)cn1c23.O` [LEVOFLOXACIN], the minimal inhibitory concentration (MIC) turned out to be 0.004 mg/L with Escherichia coli [1]; 0.023 mg/L in the experiment with Escherichia coli [2]; 0.006 mg/L against Escherichia coli [3]; 0.006 mg/L in the experiment on Escherichia coli [4]; 0.023 mg/L in the experiment with Escherichia coli [6]; 0.023 mg/L in the experiment on Escherichia coli [7]. Also, in the experiment with Escherichia coli [9], the MIC came to 0.023 mg/L.

As to `C[C@@H]1CN(c2c(F)c(N)c3c(=O)c(C(=O)O)cn(C4CC4)c3c2F)C[C@H](C)N1` [SPARFLOXACIN], the minimal inhibitory concentration (MIC) with Escherichia coli [1] was less than 0.002 mg/L; in the experiment on Escherichia coli [2], 0.004 mg/L (≈ 0.0102 µM); in the experiment on Escherichia coli [6] it was 0.125 mg/L (≈ 0.319 µM); against Escherichia coli [7], 0.008 mg/L (≈ 0.0204 µM); against Escherichia coli [9], 0.002 mg/L (≈ 0.0051 µM).

Regarding `CCn1cc(C(=O)O)c(=O)c2cc(F)c(N3CCNCC3)cc21` [NORFLOXACIN], the minimum inhibitory concentration (MIC) in the experiment on Escherichia coli [1] was 0.032 mg/L (≈ 0.1 µM); in the experiment with Escherichia coli [2], 0.064 mg/L (≈ 0.2 µM); with Escherichia coli [12] it was 0.047 mg/L (≈ 0.147 µM); against Escherichia coli [3], 0.032 mg/L (≈ 0.1 µM); against Escherichia coli [4] it was 0.032 mg/L (≈ 0.1 µM); against Escherichia coli [5], 0.032 mg/L (≈ 0.1 µM). The MIC is 0.064 mg/L (≈ 0.2 µM) against Escherichia coli [6]; 0.047 mg/L (≈ 0.147 µM) with Escherichia coli [7]; 0.047 mg/L (≈ 0.147 µM) with Escherichia coli [8]; 0.032 mg/L (≈ 0.1 µM) against Escherichia coli [11]; 0.032 mg/L (≈ 0.1 µM) against Escherichia coli [9]; 0.032 mg/L (≈ 0.1 µM) in the experiment with Escherichia coli [10].

`CCn1cc(C(=O)O)c(=O)c2ccc(C)nc21` [NALIDIXIC ACID]: the MIC against Escherichia coli [1] stood at 1.5 mg/L (≈ 6.46 µM); in the experiment on Escherichia coli [2], 3 mg/L (≈ 12.9 µM); against Escherichia coli [12] it was 2 mg/L (≈ 8.61 µM); in the experiment with Escherichia coli [3], 1.5 mg/L (≈ 6.46 µM); against Escherichia coli [4] it was 1.5 mg/L (≈ 6.46 µM); in the experiment with Escherichia coli [5], 2 mg/L (≈ 8.61 µM). Moreover, the minimal inhibitory concentration (MIC) against Escherichia coli [6] was 2 mg/L (≈ 8.61 µM); against Escherichia coli [7], 2 mg/L (≈ 8.61 µM); in the experiment on Escherichia coli [8], 2 mg/L (≈ 8.61 µM); in the experiment on Escherichia coli [11], 1.5 mg/L (≈ 6.46 µM); against Escherichia coli [9], 2 mg/L (≈ 8.61 µM); in the experiment on Escherichia coli [10] it was 2 mg/L (≈ 8.61 µM).

Source of the values: ChEMBL document CHEMBL1275505, “Smqnr, a new chromosome-carried quinolone resistance gene in Stenotrophomonas maltophilia” (2008).
